Reference: US11141404B1, “Formulations and methods for treating acute cannabinoid overdose” (Anebulo Pharmaceuticals, Inc., priority 2020, dated 2021)

What was measured:
Format in all cases: in vivo
[1] = test system: C57 mice; assay: Reversal of THC-induced hypolocomotion in mice; settings: 30 min pre-test, THC 3 mg/kg ip 10 min pre-test
Description: Reversal of THC-induced hypolocomotion in mice: Six C57 mice (Charles River, Wilmington, Mass.) were administered Δ9-tetrahydrocannabinol (THC) 3 mg/kg ip, 10 min pre-test. […] In this apparatus, four qualitatively different measures of locomotor activity are automatically scored. […] The magnitude of the effect is similar to that elicited by rimonabant given at 3 mg/kg po, and given 30 min pre-test.

[2] = test system: rat; assay: Repeated dose (28 day) toxicity study in rat; settings: 28 day repeated dose
Description: (§1) Repeated dose (28 day) toxicity studies were conducted using ANEB-001 in two species, rat and primate, selected on the basis of acceptable bioavailability and comparison of metabolite profiles with those in human liver microsomes.

[3] = test system: cynomolgus monkey; assay: Repeat dose (28 day) toxicity study in cynomolgus monkey; settings: 28 day repeat dose, 160 mg/kg/day
Description: as §1

[4] = Single ascending oral dose pharmacokinetics in humans; settings: human plasma, single oral dose 1-200 mg
Description: Human subjects were assigned to six different dosage groups of ANEB-001. Groups assigned to receive dosages of 1 mg, 5 mg, 25 mg, 100 mg, or 200 mg had six subjects each, and the 150 mg dosage group had four subjects. ANEB-001 was administered orally to subjects in each group, and the plasma concentration of ANEB-001 in each subject was measured as a function of time after dosing (FIG. 2).

Row | Compound | action of THC on the total active time parameter of locomotor measures ([1]; 30 mg/kg orally, 15 min in locomotor activity cages, FIG. 1) | no observed adverse effect level [2] | hepatic findings ([2]; 75 mg/kg/day) | adverse effects at the highest dose tested ([2]; highest dose 75 mg/kg/day) | adverse effects at the highest dose level studied [3] | Tmax [4] | half-life ([4]; read-out: terminal elimination half-life) | magnitude of the effect on THC-induced hypolocomotion (total active time), compared with ANEB-001 ([1]; 3 mg/kg po)
1 | CC(C)(C)NC(=O)N1CC(O[C@H](c2ccc(Cl)cc2)c2ccccc2C(F)(F)F)C1 [ANEB-001, 3-[(R)-2-(trifluoromethyl)-4′-chlorobenzhydryloxy]-N-(tert-butyl)azetidine-1-carboxamide] | significantly reversed | 75 mg/kg/day | hepatic changes consistent with an adaptive response | No adverse effects were observed | no adverse effects were observed | 1 to 1.6 h | ≤ 456 h | –
2 | Cc1c(C(=O)NN2CCCCC2)nn(-c2ccc(Cl)cc2Cl)c1-c1ccc(Cl)cc1 [rimonabant, reference compound] | – | – | – | – | – | – | – | similar
